Measurements as given in ChEMBL document CHEMBL1157950, “Sarcophytonolides E-H, cembranolides from the Hainan soft coral Sarcophyton latum” (J Nat Prod, 2006).
Active and inactive are the calls of the source. The rule behind the calls is not given here.

How the values were obtained:
A549 = assay: Cytotoxicity against human A549 cells at 20 ug/mL; assay type: functional, cell-based
HL-60 = assay: Cytotoxicity against human HL60 cells at 20 ug/mL; assay type: functional, cell-based

SMILES	Activity (A549)	Activity (HL-60)
C/C1=C\[C@H](O)CC2=C[C@@H](OC2=O)[C@H](C(C)C)CC/C(C)=C/CC1	inactive	inactive
CC(=O)O[C@H]1C/C(C)=C/CC/C(C)=C/[C@H](O)CC2=C[C@H](OC2=O)[C@@H]1C(C)C	inactive	inactive
C/C1=C\[C@@H](O)CC2=C[C@@H](OC2=O)[C@H](C(C)C)CC/C(C)=C/CC1	inactive	inactive
C/C1=C\CC[C@H](C)C[C@H](O)CC2=C[C@@H](OC2=O)[C@H](C(C)C)CC1	inactive	inactive
